Numbers after ± are expanded uncertainties.
Tests used:
[1] = 293.15 K; 101.33 kPa; Liquid; Pycnometric method
[2] = refractive index (Na D-line) (dimensionless); details: 293.15 K; 101.33 kPa; Liquid; Standard Abbe refractometry

Compound	mass density [1]	refractive index [2]
c1ccccc1 [benzene]	879 ± 1 kg/m3	1.5011 ± 0.0004
CCOC(C)=O [ethyl acetate]	900 ± 1 kg/m3	1.3588 ± 0.0004
Cc1ccccc1 [toluene]	866 ± 1 kg/m3	1.4967 ± 0.0004

From the NIST ThermoML archive (doi:10.1021/je800842z)
